Measurements reported in patent US4275066A, “Antireproductive tricyclic ortho-fused nitrogen containing compounds” (Gruppo Lepetit S.p.A., priority 1979, dated 1981).

Columns and labels:
[1] = tested on: female Syrian golden hamsters; experiment: post-coital-post-implantation antifertility activity, s.c., hamsters; type: in vivo, Syrian golden hamster; conditions: Mesocricetus auratus, sc, sesame oil containing 20% benzyl benzoate, daily for 5 days (days 4-8 of pregnancy), autopsy day 14, read-out: ED50 (100% activity, absence of live fetuses, in 50% of the animals)
Procedure: (§1) Representative experiments for assessing antifertility activity were carried out with female Syrian golden hamsters weighing 100 to 130 g. The animals were mated and the presence of sperm in the vagina was taken as evidence of mating. The day sperm was detected was considered day one of pregnancy, since in our laboratories and those of other investigators 90 to 100% of animals that mate as evidenced by vaginal sperm are pregnant.
(§2) Pregnancy was later confirmed at the time of autopsy by presence of fetuses or implantation sites in the uterus. Even if an animal aborts the fetus, implantation scars still remain as evidence that the animal has been pregnant. […] The animals were autopsied on day 14 of pregnancy and the uteri were examined for evidence of pregnancy (implantation sites, fetal resorptions or live fetuses), hemorrhage, and evidence of abnormalities of the uterus, placenta or fetuses. A compound was considered to be active if there was a reduction of live fetuses in at least 60% of the treated animals and the presence of implantation sites proves the animal to have been pregnant.
The compounds were then studied for dose-activity relationships and the corresponding ED50 values i.e., 100% activity (absence of live fetuses) in 50% of the animals, were also determined. The following Table reports the ED50 values of some representative compounds of the invention: […]

[2] = tested on: female Sprague-Dawley rats; experiment: anti-reproductive activity, s.c., rats; type: in vivo, Sprague-Dawley rat; conditions: Rattus norvegicus, sc, five consecutive days from day 6 of pregnancy, autopsy day 16
Procedure: The same criteria and experimental conditions as above were also applied when the anti-reproductive activity of the compounds of the invention was investigated in other animal species such as, for instance, rats, dogs, monkeys and baboons.
In representative experiments, female Sprague-Dawley rats weighing from 200 to 300 g. were treated subcutaneously with a dosage of 20 mg/kg of the compound to be tested, dissolved in sesame oil containing 20% of benzyl benzoate, for five consecutive days starting from day 6 of pregnancy.

hamsters [3] = experiment: antifertility activity by oral route, hamsters; type: in vivo, hamster; conditions: Mesocricetus auratus, p.o.
Procedure: as §1, §2
The compounds were then studied for dose-activity relationships and the corresponding ED50 values i.e., 100% activity (absence of live fetuses) in 50% of the animals, were also determined. The following Table reports the ED50 values of some representative compounds of the invention:
Favorable results were also obtained by administering the compounds of the invention by oral route. The experiments for assessing this property were carried out on hamsters following the same procedures as above, with the obvious exception that the compounds were administered orally instead of subcutaneously.

hamsters [4] = experiment: antifertility activity by intravaginal route, hamsters; type: in vivo, hamster; conditions: Mesocricetus auratus

**Q.** Which results are given for c1ccc(-c2ccc(-c3nc4c5ccccc5ccn4n3)cc2)cc1 [Example 1, 2-[(1,1'-Biphenyl)-4-yl]-1,2,4-triazolo[5,1-a]isoquinoline]?
**A.** ED50 [1]: 0.015 mg/kg; ED50 [2]: 0.55 mg/kg; ED50 (hamsters [3]): 0.2 mg/kg; ED50 (hamsters [4]): ~0.2 mg/kg

**Q.** Which ED50 [1] does the source give for c1ccc(-c2ccc(-c3cn4ccc5ccccc5c4n3)cc2)cc1 [Example 6, 2-[(1,1'-Biphenyl)-4-yl]-imidazo[2,1-a]isoquinoline] here?
**A.** 0.02 mg/kg

**Q.** And the ED50 (hamsters [3])?
**A.** 0.3 mg/kg

**Q.** How did the ED50 [1] turn out when c1ccc(-c2ccc(-c3nc4n(n3)Cc3ccccc3-4)cc2)cc1 [Example 4, 2-[(1,1'-Biphenyl)-4-yl]-5H-1,2,4-triazolo[5,1-a]isoindole] was run?
**A.** 0.7 mg/kg

**Q.** Which ED50 [1] does the source give for c1ccc(-c2ccc(-c3nc4n(n3)CCc3ccccc3-4)cc2)cc1 [Example 3, 2-[(1,1'-Biphenyl)-4-yl]-5,6-dihydro-1,2,4-triazolo[5,1-a]isoquinoline] here?
**A.** 0.05 mg/kg

**Q.** What about the ED50 (hamsters [3]) of the same compound?
**A.** 0.5 mg/kg
